From patent US20250243180A1, “TARGETED PROTEIN DEGRADATION” (Monte Rosa Therapeutics AG, priority 2023, published 2025) come the findings set out here.

The structures appear in SMILES notation. Read-outs that look alike come from different tables or passages of the source.

Experiment [1] addresses CRBN-DDB1 (Homo sapiens (Human), UniProt Q96SW2). The experiment can be described thus: Compound binding to CRBN by HTRF assay. In a few lines: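 HTRF displacement of Cy5-thalidomide probe (100 nM) from His-tagged CRBN-DDB1 (2.5 nM) with anti-His terbium cryptate, in HEPES/NaCl/TCEP/EDTA/Tween20 buffer; 11-point 1:3 dilution series, 30 min at ambient temperature. Signal (665/620 nm) normalized to lenalidomide and DMSO controls; EC50 fitted, Ki by Cheng-Prusoff from geometric mean EC50.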

In experiment [2] the target is NEK7 (Homo sapiens (Human), UniProt Q8TDX7+Q96SW2). The experiment in a line: NEK7 NanoBiT degradation assay in Cal51 NEK7 NanoBiT cell line. The conditions noted are these: Cal51 NEK7 NanoBiT cells, 24 hours; for Dmax: CAL-51. The class given is cell-based. In a few lines: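 Cal51 cells with CRISPR knock-in HiBiT-tagged endogenous NEK7 plus stable LgBiT, in live-cell Endurazine medium, seeded 16 h before dosing. Compounds at final 1 μM to 0.05 nM for 24 h at 37 °C, then luminescence read. Response normalized to plate controls and fitted with a 4-parameter logistic giving EC50.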
NEK7, sequence (Q8TDX7 whole entry): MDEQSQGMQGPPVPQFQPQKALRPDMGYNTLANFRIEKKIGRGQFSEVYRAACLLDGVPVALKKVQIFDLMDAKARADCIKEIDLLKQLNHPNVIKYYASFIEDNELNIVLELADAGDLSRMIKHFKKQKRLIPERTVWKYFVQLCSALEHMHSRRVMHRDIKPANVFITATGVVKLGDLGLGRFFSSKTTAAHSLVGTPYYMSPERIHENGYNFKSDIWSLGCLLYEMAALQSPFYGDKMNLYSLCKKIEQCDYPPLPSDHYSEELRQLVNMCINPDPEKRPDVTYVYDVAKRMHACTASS
NEK7, sequence (Q96SW2 whole entry): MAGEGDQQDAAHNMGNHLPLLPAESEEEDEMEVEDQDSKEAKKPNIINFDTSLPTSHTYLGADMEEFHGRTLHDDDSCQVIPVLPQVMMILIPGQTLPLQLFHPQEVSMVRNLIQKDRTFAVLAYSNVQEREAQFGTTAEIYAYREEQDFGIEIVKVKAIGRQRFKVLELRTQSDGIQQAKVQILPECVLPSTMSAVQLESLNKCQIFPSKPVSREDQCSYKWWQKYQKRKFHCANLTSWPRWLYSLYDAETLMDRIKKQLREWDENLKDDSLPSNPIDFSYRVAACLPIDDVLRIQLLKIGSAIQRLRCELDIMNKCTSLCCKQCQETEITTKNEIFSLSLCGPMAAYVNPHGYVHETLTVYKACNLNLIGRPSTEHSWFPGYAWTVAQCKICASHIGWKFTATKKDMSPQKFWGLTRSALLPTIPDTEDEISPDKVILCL
NEK7, sequence (Q16531 2-1140 partner): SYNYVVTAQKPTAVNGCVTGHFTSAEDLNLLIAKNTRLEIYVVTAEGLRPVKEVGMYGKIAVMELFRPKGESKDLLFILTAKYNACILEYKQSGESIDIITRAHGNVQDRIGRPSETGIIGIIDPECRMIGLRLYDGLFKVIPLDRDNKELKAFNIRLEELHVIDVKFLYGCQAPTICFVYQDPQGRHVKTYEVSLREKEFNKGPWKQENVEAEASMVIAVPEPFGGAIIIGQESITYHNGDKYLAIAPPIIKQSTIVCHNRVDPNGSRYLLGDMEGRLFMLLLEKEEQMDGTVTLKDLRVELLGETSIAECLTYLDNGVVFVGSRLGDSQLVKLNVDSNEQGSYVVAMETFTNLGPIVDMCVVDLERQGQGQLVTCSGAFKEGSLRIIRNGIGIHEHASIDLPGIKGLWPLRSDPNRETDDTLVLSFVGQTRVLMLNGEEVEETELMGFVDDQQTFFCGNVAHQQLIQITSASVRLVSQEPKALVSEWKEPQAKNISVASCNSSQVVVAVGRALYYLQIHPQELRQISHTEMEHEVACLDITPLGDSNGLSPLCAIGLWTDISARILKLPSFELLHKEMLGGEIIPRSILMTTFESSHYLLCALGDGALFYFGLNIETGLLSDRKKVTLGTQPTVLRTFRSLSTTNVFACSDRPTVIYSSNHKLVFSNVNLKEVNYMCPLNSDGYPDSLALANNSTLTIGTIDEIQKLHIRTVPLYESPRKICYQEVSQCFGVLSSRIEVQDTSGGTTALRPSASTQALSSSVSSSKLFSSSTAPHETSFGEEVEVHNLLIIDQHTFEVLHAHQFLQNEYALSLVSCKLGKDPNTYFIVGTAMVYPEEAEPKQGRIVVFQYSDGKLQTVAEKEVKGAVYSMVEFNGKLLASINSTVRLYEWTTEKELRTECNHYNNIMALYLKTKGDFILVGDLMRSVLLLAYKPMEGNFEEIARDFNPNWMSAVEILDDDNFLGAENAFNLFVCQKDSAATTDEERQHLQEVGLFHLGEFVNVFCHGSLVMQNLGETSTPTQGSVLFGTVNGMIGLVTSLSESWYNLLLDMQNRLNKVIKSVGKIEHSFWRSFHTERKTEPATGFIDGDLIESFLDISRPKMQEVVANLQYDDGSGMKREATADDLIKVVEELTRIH

[3] abbreviates: NEK7 degradation, read-out: NanoBiT Dmax.
Where [4] appears, read: NEK7 degradation, read-out: NanoBiT DC50.

CRBN-DDB1, sequence (Q96SW2 whole entry): as the sequence (Q96SW2 whole entry) above
CRBN-DDB1, sequence (Q16531 whole entry partner): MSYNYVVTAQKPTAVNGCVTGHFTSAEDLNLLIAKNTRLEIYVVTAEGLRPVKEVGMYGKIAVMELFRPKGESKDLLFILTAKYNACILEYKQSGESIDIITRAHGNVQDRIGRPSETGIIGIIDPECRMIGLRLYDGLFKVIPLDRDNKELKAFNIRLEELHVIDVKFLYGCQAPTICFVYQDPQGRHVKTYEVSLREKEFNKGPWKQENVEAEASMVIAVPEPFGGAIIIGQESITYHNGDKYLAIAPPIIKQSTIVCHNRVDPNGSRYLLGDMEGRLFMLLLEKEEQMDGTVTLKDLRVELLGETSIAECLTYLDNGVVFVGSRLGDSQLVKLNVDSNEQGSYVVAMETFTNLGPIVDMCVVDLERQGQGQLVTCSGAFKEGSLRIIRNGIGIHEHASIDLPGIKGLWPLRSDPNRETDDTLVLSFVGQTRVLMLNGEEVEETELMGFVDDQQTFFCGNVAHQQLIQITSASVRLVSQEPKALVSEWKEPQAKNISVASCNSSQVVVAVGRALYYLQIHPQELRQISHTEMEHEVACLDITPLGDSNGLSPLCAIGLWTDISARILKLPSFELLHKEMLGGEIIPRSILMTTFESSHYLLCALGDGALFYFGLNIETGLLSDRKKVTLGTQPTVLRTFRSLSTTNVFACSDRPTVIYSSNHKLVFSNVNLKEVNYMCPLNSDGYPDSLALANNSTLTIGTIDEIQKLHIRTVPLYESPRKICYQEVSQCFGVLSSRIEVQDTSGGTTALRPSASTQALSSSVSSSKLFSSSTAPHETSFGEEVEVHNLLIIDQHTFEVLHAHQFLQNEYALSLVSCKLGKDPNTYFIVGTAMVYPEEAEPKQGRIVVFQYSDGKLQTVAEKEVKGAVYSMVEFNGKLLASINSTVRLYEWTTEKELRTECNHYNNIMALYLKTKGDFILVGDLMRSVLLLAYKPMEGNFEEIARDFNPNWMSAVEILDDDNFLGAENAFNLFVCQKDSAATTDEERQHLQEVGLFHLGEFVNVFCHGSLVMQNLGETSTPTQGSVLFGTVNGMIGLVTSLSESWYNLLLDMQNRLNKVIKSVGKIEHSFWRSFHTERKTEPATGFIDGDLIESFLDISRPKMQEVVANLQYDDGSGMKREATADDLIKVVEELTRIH

The EC50 is the midpoint of the concentration-response curve. Read a low EC50 as a more potent agent. Usually Dmax stands for the greatest extent of degradation seen. One may read the DC50 as the concentration giving 50% degradation. For the compound `CC(C)(C(=O)NCc1cc(Cl)c(C2CCC(=O)NC2=O)c(Cl)c1)c1ncc(CO)cn1` (stereo not drawn) [Compound 231, N-(3,5-dichloro-4-(2,6-dioxopiperidin-3-yl)benzyl)-2-(5-(hydroxymethyl)pyrimidin-2-yl)-2-methylpropanamide], the half-maximal effective concentration (EC50) in experiment [1] was 140 nM; in experiment [1] (HTRF class, Cereblon binding), 100 to 1000 nM. For the same compound, the Dmax was 82% in experiment [2] (read-out: NEK7 NanoBiT Dmax) and more than 75% in experiment [2] (setting [3]). In addition, the DC50 is 23 nM in experiment [2] (read-out: NEK7 NanoBiT DC50) and not above 100 nM in experiment [2] (setting [4]).
Regarding `Cc1cnc(C(C)(C)C(=O)NCc2cc(C)c(C3CCC(=O)NC3=O)c(Cl)c2)nc1` (stereo not drawn) [Compound 271], the 50% effective concentration (EC50) was 520 nM in experiment [1] and 100 to 1000 nM in experiment [1] (HTRF class, Cereblon binding). Also, the Dmax in experiment [2] (read-out: NEK7 NanoBiT Dmax) was 68%; in experiment [2] (setting [3]), 50 to 75%. Moreover, the half-maximal degradation concentration (DC50) in experiment [2] (read-out: NEK7 NanoBiT DC50) is 213 nM; in experiment [2] (setting [4]), 100 to 1000 nM.
With `CC(C)(C(=O)NCc1cc(Cl)c(C2CCC(=O)NC2=O)c(Cl)c1)c1cc2ncccc2cn1` (stereo not drawn) [Compound 2, N-(3,5-dichloro-4-(2,6-dioxopiperidin-3-yl)benzyl)-2-methyl-2-(1,6-naphthyridin-7-yl)propanamide], the EC50 in experiment [1] is 110 nM; in experiment [1] (HTRF class, Cereblon binding), 100 to 1000 nM. Moreover, the Dmax is 94% in experiment [2] (read-out: NEK7 NanoBiT Dmax) and more than 75% in experiment [2] (setting [3]). In addition, the half-maximal degradation concentration (DC50) in experiment [2] (read-out: NEK7 NanoBiT DC50) was 3 nM; in experiment [2] (setting [4]) it was not above 100 nM.
For `CC(C)(C(=O)NCc1cc(Cl)c(C2CCC(=O)NC2=O)c(Cl)c1)c1ccc(=O)[nH]c1` (stereo not drawn) [Compound 79], the EC50 in experiment [1] is 250 nM; in experiment [1] (HTRF class, Cereblon binding), 100 to 1000 nM. The greatest degradation seen (Dmax) in experiment [2] (read-out: NEK7 NanoBiT Dmax) was 83%; in experiment [2] (setting [3]), more than 75%. In addition, the DC50 was 92 nM in experiment [2] (read-out: NEK7 NanoBiT DC50) and not above 100 nM in experiment [2] (setting [4]).
`CC(C)(C(=O)NCc1cc(F)c(C2CCC(=O)NC2=O)c(Cl)c1)c1ccc(OCC(F)F)nc1` (stereo not drawn) [Compound 269, N-(3-chloro-4-(2,6-dioxopiperidin-3-yl)-5-fluorobenzyl)-2-(6-(2,2-difluoroethoxy)pyridin-3-yl)-2-methylpropanamide]: the EC50 in experiment [1] is 100 nM; in experiment [1] (HTRF class, Cereblon binding) it was 100 to 1000 nM. The Dmax in experiment [2] (read-out: NEK7 NanoBiT Dmax) is 95%; in experiment [2] (setting [3]) it was more than 75%. The values for the DC50 in experiment [2] (read-out: NEK7 NanoBiT DC50) and in experiment [2] (setting [4]) were 1 nM and not above 100 nM, respectively.
As for `CC(C)(C(=O)NCc1cc(Cl)c(C2CCC(=O)NC2=O)c(Cl)c1)c1cccc(C(N)=O)c1` (stereo not drawn) [Compound 65], the concentration giving a half-maximal response (EC50) in experiment [1] was 140 nM; in experiment [1] (HTRF class, Cereblon binding) it was 100 to 1000 nM. Moreover, the Dmax in experiment [2] (read-out: NEK7 NanoBiT Dmax) is 98%; in experiment [2] (setting [3]), more than 75%. In addition, the DC50 was 1 nM in experiment [2] (read-out: NEK7 NanoBiT DC50) and not above 100 nM in experiment [2] (setting [4]).
As for `CC(C)(C(=O)NCc1cc(Cl)c(C2CCC(=O)NC2=O)c(Cl)c1)c1cc2ocnc2cn1` (stereo not drawn) [Compound 146], the EC50 in experiment [1] is 180 nM; in experiment [1] (HTRF class, Cereblon binding), 100 to 1000 nM. Besides, the maximal degradation (Dmax) is 91% in experiment [2] (read-out: NEK7 NanoBiT Dmax) and more than 75% in experiment [2] (setting [3]). In addition, the half-maximal degradation concentration (DC50) is 5 nM in experiment [2] (read-out: NEK7 NanoBiT DC50) and not above 100 nM in experiment [2] (setting [4]).
For `Cc1cnc(C(C)(C)C(=O)NCc2cc(Cl)c(C3CCC(=O)NC3=O)c(Cl)c2)o1` (stereo not drawn) [Compound 163], the EC50 is 250 nM in experiment [1] and 100 to 1000 nM in experiment [1] (HTRF class, Cereblon binding). Besides, the Dmax in experiment [2] (read-out: NEK7 NanoBiT Dmax) is 80%; in experiment [2] (setting [3]), more than 75%. Moreover, the half-maximal degradation concentration (DC50) in experiment [2] (read-out: NEK7 NanoBiT DC50) was 18 nM; in experiment [2] (setting [4]), not above 100 nM.
`CC(C)(C(=O)NCc1cc(Cl)c(C2CCC(=O)NC2=O)c(Cl)c1)c1ccc(C(N)=O)c(F)c1` (stereo not drawn) [Compound 57]: the EC50 is 130 nM in experiment [1] and 100 to 1000 nM in experiment [1] (HTRF class, Cereblon binding). In addition, the Dmax in experiment [2] (read-out: NEK7 NanoBiT Dmax) is 94%; in experiment [2] (setting [3]), more than 75%. The DC50 is 3 nM in experiment [2] (read-out: NEK7 NanoBiT DC50) and not above 100 nM in experiment [2] (setting [4]).
For the compound `CC(C)(C(=O)NCc1cc(Cl)c(C2CCC(=O)NC2=O)c(Cl)c1)c1ccsc1` (stereo not drawn) [Compound 126, N-(3,5-dichloro-4-(2,6-dioxopiperidin-3-yl)benzyl)-2-methyl-2-(thiophen-3-yl)propanamide], the EC50 is 50 nM in experiment [1] and not above 100 nM in experiment [1] (HTRF class, Cereblon binding). The Dmax was 94% in experiment [2] (read-out: NEK7 NanoBiT Dmax) and more than 75% in experiment [2] (setting [3]). The half-maximal degradation concentration (DC50) in experiment [2] (read-out: NEK7 NanoBiT DC50) is 3 nM; in experiment [2] (setting [4]), not above 100 nM.
In the case of `Cc1cc(C(C)(C)C(=O)NCc2cc(Cl)c(C3CCC(=O)NC3=O)c(Cl)c2)cc(=O)[nH]1` (stereo not drawn) [Compound 42, N-(3,5-dichloro-4-(2,6-dioxopiperidin-3-yl)benzyl)-2-methyl-2-(6-methyl-2-oxo-1,2-dihydropyridin-4-yl)propanamide], the EC50 is 180 nM in experiment [1] and 100 to 1000 nM in experiment [1] (HTRF class, Cereblon binding). The values for the Dmax in experiment [2] (read-out: NEK7 NanoBiT Dmax) and in experiment [2] (setting [3]) were 93% and more than 75%, respectively. Besides, the results for the DC50 in experiment [2] (read-out: NEK7 NanoBiT DC50) and in experiment [2] (setting [4]) were 20 nM and not above 100 nM, respectively.
Take `COc1ccc(C(C)(C)C(=O)NCc2cc(Cl)c(C3CCC(=O)NC3=O)c(Cl)c2)nn1` (stereo not drawn) [Compound 204]: the concentration giving a half-maximal response (EC50) was 80 nM in experiment [1] and not above 100 nM in experiment [1] (HTRF class, Cereblon binding). Moreover, the results for the Dmax in experiment [2] (read-out: NEK7 NanoBiT Dmax) and in experiment [2] (setting [3]) were 98% and more than 75%, respectively. For the same compound, the half-maximal degradation concentration (DC50) in experiment [2] (read-out: NEK7 NanoBiT DC50) was 1 nM; in experiment [2] (setting [4]), not above 100 nM.
As to `Cn1c(F)cc(C(C)(C)C(=O)NCc2cc(Cl)c(C3CCC(=O)NC3=O)c(Cl)c2)cc1=O` (stereo not drawn) [Compound 172], the EC50 in experiment [1] is 190 nM; in experiment [1] (HTRF class, Cereblon binding), 100 to 1000 nM. Further, the Dmax in experiment [2] (read-out: NEK7 NanoBiT Dmax) is 97%; in experiment [2] (setting [3]) it was more than 75%. In addition, the DC50 in experiment [2] (read-out: NEK7 NanoBiT DC50) was 2 nM; in experiment [2] (setting [4]), not above 100 nM.
As for `CC(C)(C(=O)NCc1cc(Cl)c([C@@]2(F)CCC(=O)NC2=O)c(Cl)c1)c1ccccc1` (single isomer, unassigned) [Compound 274], the EC50 in experiment [1] is not below 10000 nM; in experiment [1] (HTRF class, Cereblon binding), more than 1000 nM. Besides, the figures for the greatest degradation seen (Dmax) in experiment [2] (read-out: NEK7 NanoBiT Dmax) and in experiment [2] (setting [3]) were 3% and not above 50%, respectively. Moreover, the DC50 was 1000 nM in experiment [2] (read-out: NEK7 NanoBiT DC50) and more than 1000 nM in experiment [2] (setting [4]).
Turning to `CC(C)(C(=O)NCc1cc(F)c(C2CCC(=O)NC2=O)c(Cl)c1)c1ccc(OC(F)(F)F)nn1` (stereo not drawn) [Compound 272], the EC50 in experiment [1] is 230 nM; in experiment [1] (HTRF class, Cereblon binding) it was 100 to 1000 nM. Also, the maximal degradation (Dmax) in experiment [2] (read-out: NEK7 NanoBiT Dmax) is 57%; in experiment [2] (setting [3]), 50 to 75%. The DC50 in experiment [2] (read-out: NEK7 NanoBiT DC50) is 312 nM; in experiment [2] (setting [4]), 100 to 1000 nM.
Consider `CNS(=O)(=O)c1ccc(C(C)(C)C(=O)NCc2cc(Cl)c(C3CCC(=O)NC3=O)c(Cl)c2)cc1` (stereo not drawn) [Compound 61], for which the EC50 was 60 nM in experiment [1] and not above 100 nM in experiment [1] (HTRF class, Cereblon binding). Also, the results for the Dmax in experiment [2] (read-out: NEK7 NanoBiT Dmax) and in experiment [2] (setting [3]) were 97% and more than 75%, respectively. For the same compound, the DC50 in experiment [2] (read-out: NEK7 NanoBiT DC50) is 2 nM; in experiment [2] (setting [4]), not above 100 nM.
For the compound `COc1cnc(C(C)(C)C(=O)NCc2cc(Cl)c(C3CCC(=O)NC3=O)c(Cl)c2)nc1C` (stereo not drawn) [Compound 221, N-(3,5-dichloro-4-(2,6-dioxopiperidin-3-yl)benzyl)-2-(5-methoxy-4-methylpyrimidin-2-yl)-2-methylpropanamide], the concentration for a half-maximal effect (EC50) was 80 nM in experiment [1] and not above 100 nM in experiment [1] (HTRF class, Cereblon binding). Moreover, the results for the Dmax in experiment [2] (read-out: NEK7 NanoBiT Dmax) and in experiment [2] (setting [3]) were 83% and more than 75%, respectively. Moreover, the DC50 in experiment [2] (read-out: NEK7 NanoBiT DC50) was 19 nM; in experiment [2] (setting [4]), not above 100 nM.
For the compound `COc1ccc(C(C)(C)C(=O)NCc2cc(F)c(C3CCC(=O)NC3=O)c(Cl)c2)cn1` (stereo not drawn) [Compound 250], the concentration for a half-maximal effect (EC50) in experiment [1] was 70 nM; in experiment [1] (HTRF class, Cereblon binding), not above 100 nM. Also, the values for the Dmax in experiment [2] (read-out: NEK7 NanoBiT Dmax) and in experiment [2] (setting [3]) were 96% and more than 75%, respectively. In addition, the DC50 in experiment [2] (read-out: NEK7 NanoBiT DC50) was 2 nM; in experiment [2] (setting [4]), not above 100 nM.
